According to ChEMBL document CHEMBL1135773, “Purine and pyrimidine (P2) receptors as drug targets” (J Med Chem, 2002):

Experiments:
[1] = target: T1, P2X purinoceptor 4 (Rattus norvegicus, UniProt P51577); experiment: Antagonist activity against recombinant rat P2X purinoceptor 4 (P2X4) at 30 uM, expressed in Xenopus oocytes; type: functional, cell-based, Oocyte
T1 sequence (P51577 whole entry): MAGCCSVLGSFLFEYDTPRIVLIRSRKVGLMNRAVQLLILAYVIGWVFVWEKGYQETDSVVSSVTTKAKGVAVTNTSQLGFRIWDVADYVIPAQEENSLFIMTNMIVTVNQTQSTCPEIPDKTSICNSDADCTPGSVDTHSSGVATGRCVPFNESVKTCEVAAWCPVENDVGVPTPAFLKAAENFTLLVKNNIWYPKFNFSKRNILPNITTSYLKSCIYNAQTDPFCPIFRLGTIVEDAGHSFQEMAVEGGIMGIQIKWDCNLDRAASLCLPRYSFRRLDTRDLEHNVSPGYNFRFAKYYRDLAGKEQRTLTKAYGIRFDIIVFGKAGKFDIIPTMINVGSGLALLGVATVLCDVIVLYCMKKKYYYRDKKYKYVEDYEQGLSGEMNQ

[2] = target: T2, P2X purinoceptor 5 (Rattus norvegicus, UniProt P51578); experiment: Antagonist activity against recombinant rat P2X purinoceptor 5 (P2X5); type: functional
T2 sequence (P51578 whole entry): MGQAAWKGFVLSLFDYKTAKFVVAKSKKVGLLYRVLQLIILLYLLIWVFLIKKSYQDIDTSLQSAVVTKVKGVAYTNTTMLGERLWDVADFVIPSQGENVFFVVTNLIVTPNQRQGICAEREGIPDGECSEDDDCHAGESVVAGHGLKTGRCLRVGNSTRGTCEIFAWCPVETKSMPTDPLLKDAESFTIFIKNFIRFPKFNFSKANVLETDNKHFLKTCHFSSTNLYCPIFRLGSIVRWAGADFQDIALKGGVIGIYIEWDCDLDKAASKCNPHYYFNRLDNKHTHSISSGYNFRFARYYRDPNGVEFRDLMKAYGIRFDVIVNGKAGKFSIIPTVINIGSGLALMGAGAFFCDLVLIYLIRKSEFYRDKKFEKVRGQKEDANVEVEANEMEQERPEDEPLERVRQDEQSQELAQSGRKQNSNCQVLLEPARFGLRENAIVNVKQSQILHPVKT

[3] = target: T3, P2X purinoceptor 3 (Homo sapiens, UniProt P56373); experiment: Antagonist activity against recombinant human P2X purinoceptor 3 (P2X3 ); type: functional
T3 sequence (P56373 whole entry): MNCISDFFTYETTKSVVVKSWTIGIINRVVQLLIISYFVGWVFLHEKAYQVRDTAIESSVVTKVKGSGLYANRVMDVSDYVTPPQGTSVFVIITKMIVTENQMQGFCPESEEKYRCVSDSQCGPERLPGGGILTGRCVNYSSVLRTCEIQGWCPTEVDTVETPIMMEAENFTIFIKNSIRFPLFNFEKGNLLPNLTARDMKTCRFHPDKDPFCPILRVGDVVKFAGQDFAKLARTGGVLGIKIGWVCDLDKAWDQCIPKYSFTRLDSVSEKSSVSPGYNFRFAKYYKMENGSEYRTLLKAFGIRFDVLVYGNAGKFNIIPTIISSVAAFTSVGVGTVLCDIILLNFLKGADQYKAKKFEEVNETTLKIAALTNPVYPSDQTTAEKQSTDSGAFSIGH

[4] = target: T4, P2X purinoceptor 1 (Homo sapiens, UniProt P51575); experiment: Antagonist activity against recombinant human P2X purinoceptor 1 (P2X1 ); type: functional
T4 sequence (P51575 whole entry): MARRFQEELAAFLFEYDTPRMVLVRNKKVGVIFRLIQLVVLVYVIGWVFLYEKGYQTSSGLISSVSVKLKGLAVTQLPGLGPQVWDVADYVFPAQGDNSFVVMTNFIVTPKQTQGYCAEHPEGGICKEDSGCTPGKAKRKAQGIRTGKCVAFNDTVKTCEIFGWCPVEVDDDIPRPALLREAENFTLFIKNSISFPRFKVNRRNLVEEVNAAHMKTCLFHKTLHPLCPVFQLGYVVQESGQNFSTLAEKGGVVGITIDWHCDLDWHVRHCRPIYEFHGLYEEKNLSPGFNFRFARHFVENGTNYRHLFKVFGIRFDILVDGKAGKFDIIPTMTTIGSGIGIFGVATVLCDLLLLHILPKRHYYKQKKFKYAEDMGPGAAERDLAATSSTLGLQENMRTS

[5] = target: T5, P2X purinoceptor 2 (Rattus norvegicus, UniProt P49653); experiment: Antagonist activity against recombinant rat receptor P2X purinoceptor 2 (P2X2) at 10 uM, expressed in Xenopus oocytes; type: functional, cell-based, Oocyte
T5 sequence (P49653 whole entry): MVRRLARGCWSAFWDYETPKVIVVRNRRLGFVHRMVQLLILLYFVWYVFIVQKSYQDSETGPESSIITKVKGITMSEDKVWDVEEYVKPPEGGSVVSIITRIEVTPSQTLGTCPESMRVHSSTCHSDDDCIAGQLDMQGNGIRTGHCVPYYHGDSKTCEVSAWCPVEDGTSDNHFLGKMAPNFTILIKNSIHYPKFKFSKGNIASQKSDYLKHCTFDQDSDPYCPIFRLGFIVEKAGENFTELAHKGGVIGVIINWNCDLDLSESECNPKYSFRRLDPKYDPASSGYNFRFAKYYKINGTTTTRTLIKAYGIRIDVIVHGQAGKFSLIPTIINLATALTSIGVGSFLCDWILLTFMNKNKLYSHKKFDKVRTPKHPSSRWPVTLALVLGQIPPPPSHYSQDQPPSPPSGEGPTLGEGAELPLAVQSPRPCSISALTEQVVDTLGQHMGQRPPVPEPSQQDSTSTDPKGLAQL

[6] = target: P2Y purinoceptor 1 (Meleagris gallopavo, UniProt P49652); experiment: Evaluated for agonist activity against phospholipase C coupled P2Y purinoceptor 1 (P2Y1) of turkey erythrocytes; type: functional
Sequence of P2Y purinoceptor 1 (Meleagris gallopavo, UniProt P49652) (P49652 whole entry): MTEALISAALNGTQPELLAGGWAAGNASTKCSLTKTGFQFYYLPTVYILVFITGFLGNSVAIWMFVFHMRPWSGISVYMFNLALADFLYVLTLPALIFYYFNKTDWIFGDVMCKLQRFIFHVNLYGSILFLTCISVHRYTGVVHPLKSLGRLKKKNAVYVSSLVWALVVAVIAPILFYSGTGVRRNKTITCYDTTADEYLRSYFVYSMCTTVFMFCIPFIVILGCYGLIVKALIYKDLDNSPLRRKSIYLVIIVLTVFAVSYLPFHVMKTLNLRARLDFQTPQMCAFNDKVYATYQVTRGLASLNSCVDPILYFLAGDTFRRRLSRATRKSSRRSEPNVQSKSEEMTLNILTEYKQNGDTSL

[7] = target: P2Y purinoceptor 12 (Rattus norvegicus, UniProt Q9EPX4); experiment: Antagonist activity against phospholipase C coupled rat P2Y purinoceptor 12 (P2Y12); type: functional
Sequence of P2Y purinoceptor 12 (Q9EPX4 whole entry): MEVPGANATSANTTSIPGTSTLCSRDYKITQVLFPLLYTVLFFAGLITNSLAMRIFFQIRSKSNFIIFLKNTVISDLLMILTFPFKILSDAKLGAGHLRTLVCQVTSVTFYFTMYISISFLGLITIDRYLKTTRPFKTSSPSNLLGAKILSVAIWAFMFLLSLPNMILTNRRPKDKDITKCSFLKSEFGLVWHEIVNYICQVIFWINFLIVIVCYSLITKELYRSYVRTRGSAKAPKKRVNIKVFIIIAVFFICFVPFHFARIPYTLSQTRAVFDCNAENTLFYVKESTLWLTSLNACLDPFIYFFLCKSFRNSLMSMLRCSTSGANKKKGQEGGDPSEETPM

[8] = target: P2X purinoceptor 6 (Rattus norvegicus, UniProt P51579); experiment: Antagonist activity against recombinant rat P2X purinoceptor 6 (P2X6 ); type: functional
Sequence of P2X purinoceptor 6 (P51579 whole entry): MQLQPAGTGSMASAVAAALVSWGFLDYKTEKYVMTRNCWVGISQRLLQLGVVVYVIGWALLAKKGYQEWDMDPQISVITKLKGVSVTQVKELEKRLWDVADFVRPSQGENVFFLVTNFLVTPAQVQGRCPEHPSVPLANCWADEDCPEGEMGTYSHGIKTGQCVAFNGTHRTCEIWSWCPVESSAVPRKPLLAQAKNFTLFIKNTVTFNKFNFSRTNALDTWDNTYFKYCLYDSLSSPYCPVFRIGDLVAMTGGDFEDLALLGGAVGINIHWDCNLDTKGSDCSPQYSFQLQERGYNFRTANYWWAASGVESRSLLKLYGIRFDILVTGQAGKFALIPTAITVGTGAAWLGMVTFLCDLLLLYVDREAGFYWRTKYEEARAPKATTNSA

[9] = target: T6, P2X purinoceptor 7 (Homo sapiens, UniProt Q99572); experiment: Antagonist activity against recombinant human P2X purinoceptor 7 (P2X7); type: functional
T6 sequence (Q99572 whole entry): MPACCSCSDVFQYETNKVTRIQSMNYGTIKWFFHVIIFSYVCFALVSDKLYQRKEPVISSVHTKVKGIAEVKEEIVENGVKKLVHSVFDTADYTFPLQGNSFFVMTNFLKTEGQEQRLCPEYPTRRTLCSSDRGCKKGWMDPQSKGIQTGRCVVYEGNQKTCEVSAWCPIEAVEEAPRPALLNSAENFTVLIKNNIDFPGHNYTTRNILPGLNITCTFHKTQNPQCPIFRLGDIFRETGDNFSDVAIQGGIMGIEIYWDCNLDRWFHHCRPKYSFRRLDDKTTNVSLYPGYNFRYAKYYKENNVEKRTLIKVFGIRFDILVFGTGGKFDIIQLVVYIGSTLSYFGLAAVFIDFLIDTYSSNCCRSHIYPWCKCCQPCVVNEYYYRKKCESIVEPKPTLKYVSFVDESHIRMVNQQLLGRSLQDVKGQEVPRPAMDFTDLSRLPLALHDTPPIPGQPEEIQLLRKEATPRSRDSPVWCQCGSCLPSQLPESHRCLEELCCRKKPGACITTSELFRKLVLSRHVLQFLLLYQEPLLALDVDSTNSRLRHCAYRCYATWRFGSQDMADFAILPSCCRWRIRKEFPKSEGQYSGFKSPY

[10] = target: P2X purinoceptor 2 (Homo sapiens, UniProt Q9UBL9); experiment: The compound was evaluated for antagonist activity against recombinant human receptor P2X purinoceptor 2 (P2X2 ); type: functional
Sequence of P2X purinoceptor 2 (Homo sapiens, UniProt Q9UBL9) (Q9UBL9 whole entry): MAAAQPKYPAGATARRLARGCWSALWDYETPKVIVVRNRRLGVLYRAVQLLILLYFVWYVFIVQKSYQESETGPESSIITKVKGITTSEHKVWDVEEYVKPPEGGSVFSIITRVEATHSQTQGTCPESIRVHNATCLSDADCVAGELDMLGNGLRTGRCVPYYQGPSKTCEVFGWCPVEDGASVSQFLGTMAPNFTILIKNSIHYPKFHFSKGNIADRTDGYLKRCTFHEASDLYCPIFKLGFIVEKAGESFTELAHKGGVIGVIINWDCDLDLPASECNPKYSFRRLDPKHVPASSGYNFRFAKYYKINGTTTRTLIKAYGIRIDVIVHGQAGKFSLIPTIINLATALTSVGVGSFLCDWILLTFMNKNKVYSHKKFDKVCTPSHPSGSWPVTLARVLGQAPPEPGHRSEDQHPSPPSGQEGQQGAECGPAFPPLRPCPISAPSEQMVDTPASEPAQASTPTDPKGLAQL

[11] = target: P2Y purinoceptor 2 (Homo sapiens, UniProt P41231); experiment: Evaluated for agonist activity against phospholipase C coupled recombinant human P2Y purinoceptor 2 (P2Y2); type: functional
Sequence of P2Y purinoceptor 2 (P41231 whole entry): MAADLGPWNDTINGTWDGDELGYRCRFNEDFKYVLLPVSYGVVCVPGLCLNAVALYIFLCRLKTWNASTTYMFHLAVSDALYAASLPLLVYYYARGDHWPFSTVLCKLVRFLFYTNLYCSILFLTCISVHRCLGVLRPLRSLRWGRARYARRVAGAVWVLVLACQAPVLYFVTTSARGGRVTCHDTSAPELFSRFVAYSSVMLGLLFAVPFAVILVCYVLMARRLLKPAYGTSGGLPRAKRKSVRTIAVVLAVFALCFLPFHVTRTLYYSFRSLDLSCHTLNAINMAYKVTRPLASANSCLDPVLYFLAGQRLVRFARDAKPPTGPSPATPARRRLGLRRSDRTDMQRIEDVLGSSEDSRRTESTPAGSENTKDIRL

[12] = target: P2Y purinoceptor 1 (Homo sapiens, UniProt P47900); experiment: Evaluated for agonist activity against phospholipase C coupled P2Y purinoceptor 1 (P2Y1) of human erythrocytes; type: functional
Sequence of P2Y purinoceptor 1 (Homo sapiens, UniProt P47900) (P47900 whole entry): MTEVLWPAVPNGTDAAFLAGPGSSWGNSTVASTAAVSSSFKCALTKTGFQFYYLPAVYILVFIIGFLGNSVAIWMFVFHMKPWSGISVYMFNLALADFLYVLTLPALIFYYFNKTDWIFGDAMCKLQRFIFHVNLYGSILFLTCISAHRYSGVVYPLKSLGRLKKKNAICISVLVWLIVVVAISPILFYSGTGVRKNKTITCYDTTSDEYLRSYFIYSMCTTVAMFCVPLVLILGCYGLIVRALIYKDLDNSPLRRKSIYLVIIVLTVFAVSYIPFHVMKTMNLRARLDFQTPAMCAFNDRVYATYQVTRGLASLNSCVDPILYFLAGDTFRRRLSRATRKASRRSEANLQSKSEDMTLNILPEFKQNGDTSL

[13] = target: T7, P2Y purinoceptor 11 (Homo sapiens, UniProt Q96G91); experiment: Agonist activity against phospholipase C coupled human P2Y purinoceptor 11 (P2Y11); type: functional
T7 sequence (Q96G91 whole entry): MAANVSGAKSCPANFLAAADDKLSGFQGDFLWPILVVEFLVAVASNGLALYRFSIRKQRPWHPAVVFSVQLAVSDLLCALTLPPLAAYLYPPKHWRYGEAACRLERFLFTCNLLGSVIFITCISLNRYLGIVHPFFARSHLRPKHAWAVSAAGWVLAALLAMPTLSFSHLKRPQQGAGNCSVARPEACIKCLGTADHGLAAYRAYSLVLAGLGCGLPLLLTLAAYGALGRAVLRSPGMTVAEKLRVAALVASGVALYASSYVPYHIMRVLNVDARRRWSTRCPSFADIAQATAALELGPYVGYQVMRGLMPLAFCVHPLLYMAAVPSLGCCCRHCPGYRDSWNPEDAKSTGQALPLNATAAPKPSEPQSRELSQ

[14] = target: P2Y purinoceptor 6 (Homo sapiens, UniProt Q15077); experiment: The compound was evaluated for agonist activity against phospholipase C coupled recombinant human P2Y purinoceptor 6 (P2Y6); type: functional
Sequence of P2Y purinoceptor 6 (Q15077 whole entry): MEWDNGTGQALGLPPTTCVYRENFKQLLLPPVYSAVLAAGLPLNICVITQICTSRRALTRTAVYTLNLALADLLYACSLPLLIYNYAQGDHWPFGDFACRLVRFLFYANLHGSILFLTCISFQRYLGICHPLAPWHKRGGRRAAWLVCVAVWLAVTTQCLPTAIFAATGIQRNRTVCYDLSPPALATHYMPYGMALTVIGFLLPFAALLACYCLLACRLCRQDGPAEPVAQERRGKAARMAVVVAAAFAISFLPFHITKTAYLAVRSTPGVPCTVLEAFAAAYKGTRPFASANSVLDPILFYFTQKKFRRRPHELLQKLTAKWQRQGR

[15] = target: P2Y purinoceptor 4 (Rattus norvegicus, UniProt O35811); experiment: The compound was evaluated for antagonist activity against phospholipase C coupled recombinant rat P2Y purinoceptor 4 (P2Y4); type: functional
Sequence of P2Y purinoceptor 4 (Rattus norvegicus, UniProt O35811) (O35811 whole entry): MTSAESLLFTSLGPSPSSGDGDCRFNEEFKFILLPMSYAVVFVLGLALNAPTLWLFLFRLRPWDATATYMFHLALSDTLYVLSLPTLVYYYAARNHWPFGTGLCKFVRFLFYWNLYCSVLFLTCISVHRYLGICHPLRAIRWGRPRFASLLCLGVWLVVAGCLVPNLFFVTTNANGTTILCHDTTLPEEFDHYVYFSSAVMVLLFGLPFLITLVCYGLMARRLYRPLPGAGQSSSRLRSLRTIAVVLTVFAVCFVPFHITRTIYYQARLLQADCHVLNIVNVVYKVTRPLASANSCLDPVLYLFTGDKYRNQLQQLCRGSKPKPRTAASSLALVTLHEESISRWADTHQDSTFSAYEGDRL

[16] = target: T8, P2X purinoceptor 1 (Rattus norvegicus, UniProt P47824); experiment: The compound was evaluated for antagonist activity against recombinant rat P2X purinoceptor 1 (P2X1); type: functional
T8 sequence (P47824 whole entry): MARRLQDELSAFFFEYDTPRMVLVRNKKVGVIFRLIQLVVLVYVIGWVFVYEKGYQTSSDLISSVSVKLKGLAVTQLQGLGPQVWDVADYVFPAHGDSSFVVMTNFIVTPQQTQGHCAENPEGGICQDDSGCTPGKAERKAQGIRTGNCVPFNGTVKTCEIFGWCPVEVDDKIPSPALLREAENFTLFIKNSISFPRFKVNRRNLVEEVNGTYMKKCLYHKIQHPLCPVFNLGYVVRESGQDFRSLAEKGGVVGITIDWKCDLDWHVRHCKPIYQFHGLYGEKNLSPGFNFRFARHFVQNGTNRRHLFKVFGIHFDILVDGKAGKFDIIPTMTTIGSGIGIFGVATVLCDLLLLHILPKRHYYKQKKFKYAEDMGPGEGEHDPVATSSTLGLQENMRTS

[17] = target: T3, P2X purinoceptor 3; experiment: The compound was evaluated for antagonist activity against recombinant human P2X purinoceptor 3 (P2X3 ); type: functional
[18] = target: T9, P2X purinoceptor 4 (Homo sapiens, UniProt Q99571); experiment: Antagonist activity against recombinant human P2X purinoceptor 4 (P2X4); type: functional
T9 sequence (Q99571 whole entry): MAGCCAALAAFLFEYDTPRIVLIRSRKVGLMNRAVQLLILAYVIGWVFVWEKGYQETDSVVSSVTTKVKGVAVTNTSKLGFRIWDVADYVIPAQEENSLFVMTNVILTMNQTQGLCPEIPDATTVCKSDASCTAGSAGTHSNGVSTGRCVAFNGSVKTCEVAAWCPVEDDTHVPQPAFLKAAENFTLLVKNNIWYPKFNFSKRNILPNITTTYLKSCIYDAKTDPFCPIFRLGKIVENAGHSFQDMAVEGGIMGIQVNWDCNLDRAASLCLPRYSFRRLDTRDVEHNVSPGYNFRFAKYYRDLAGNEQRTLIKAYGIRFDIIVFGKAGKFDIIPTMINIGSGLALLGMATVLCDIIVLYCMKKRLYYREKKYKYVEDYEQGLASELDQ

[19] = target: T1, P2X purinoceptor 4; experiment: Antagonist activity against recombinant rat P2X purinoceptor 4 (P2X4) at 3 uM, expressed in Xenopus oocytes; type: functional, cell-based, Oocyte
[20] = target: P2Y purinoceptor 4 (Homo sapiens, UniProt P51582); experiment: The compound was evaluated for antagonist activity against phospholipase C coupled recombinant human P2Y purinoceptor 4 (P2Y4); type: functional
Sequence of P2Y purinoceptor 4 (Homo sapiens, UniProt P51582) (P51582 whole entry): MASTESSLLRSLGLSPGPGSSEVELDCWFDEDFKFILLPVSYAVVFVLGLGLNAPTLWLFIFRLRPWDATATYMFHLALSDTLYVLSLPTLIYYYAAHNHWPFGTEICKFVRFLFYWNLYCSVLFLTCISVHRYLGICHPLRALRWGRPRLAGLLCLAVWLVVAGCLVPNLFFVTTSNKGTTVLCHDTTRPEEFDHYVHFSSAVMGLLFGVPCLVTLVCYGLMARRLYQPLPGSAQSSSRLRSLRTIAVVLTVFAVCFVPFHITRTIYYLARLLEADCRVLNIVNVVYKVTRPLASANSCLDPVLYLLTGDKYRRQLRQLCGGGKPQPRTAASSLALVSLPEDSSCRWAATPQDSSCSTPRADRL

[21] = target: P2X purinoceptor 7 (Homo sapiens) (UniProt Q99572); experiment: The compound was evaluated for antagonist activity against recombinant human P2X purinoceptor 7 (P2X7); type: functional

SMILES | EC50 [1] [µM] | EC50 [2] [µM] | EC50 [3] [µM] | EC50 [4] [µM] | EC50 [5] [µM] | EC50 [7] [µM] | EC50 [8] [µM] | EC50 [10] [µM] | EC50 [11] [µM] | EC50 [14] [µM] | EC50 [15] [µM] | also measured
Nc1ncnc2c1ncn2[C@@H]1O[C@H](COP(=O)(O)CP(=O)(O)OP(=O)(O)O)[C@@H](O)[C@H]1O [DIPHOSPHOMETHYLPHOSPHONIC ACID ADENOSYL ESTER] | 33 | > 7 | 0.74 | 0.2 | 100 | > 100 | > 8 |  |  |  |  | EC50 [6]: > 100 µM; EC50 [9]: > 100 µM
Nc1ncnc2c1ncn2[C@@H]1O[C@H](COP(=O)(O)OP(=O)(O)O)[C@@H](O)[C@H]1O [ADENOSINE DIPHOSPHATE] | 28 | 18 | > 100 | 10 |  | 0.069 | 11 | > 100 | > 100 |  |  | 
O=c1ccn([C@@H]2O[C@H](COP(=O)(O)OP(=O)(O)OP(=O)(O)O)[C@@H](O)[C@H]2O)c(=O)[nH]1 [URIDINE TRIPHOSPHATE] |  |  |  |  |  |  |  |  | 0.14 | 6 | 2.6 | EC50 [12]: > 100 µM; EC50 [13]: > 100 µM
Cc1nc(/N=N/c2cc(S(=O)(=O)O)ccc2S(=O)(=O)O)c(COP(=O)(O)O)c(C=O)c1O [ISOPPADS] |  |  |  |  |  |  |  |  |  |  |  | EC50 [16]: 0.043 µM; IC50 [17]: 0.084 µM
Nc1ncnc2c1ncn2[C@@H]1O[C@H](COP(=O)(O)OP(=O)(O)OP(=O)(O)OP(=O)(O)OC[C@H]2O[C@@H](n3cnc4c(N)ncnc43)[C@H](O)[C@@H]2O)[C@@H](O)[C@H]1O [DIADENOSINE TETRAPHOSPHATE] |  |  | 0.5 | 0.182 |  |  |  | 15 | 0.72 |  | 3 | EC50 [18]: 1 µM
CNc1ncnc2c1ncn2[C@H]1C[C@H](OP(=O)(O)O)[C@@H](COP(=O)(O)O)O1 |  |  |  | 1.15 | > 10 | > 100 |  |  | > 100 | > 100 |  | EC50 [19]: > 10 µM; EC50 [20]: > 100 µM; IC50 [21]: > 30 µM
